Test results published in patent US11549123B2, “Plant EPSP synthases and methods of use” (PIONEER HI-BRED INTERNATIONAL, INC., priority 2015, dated 2023).
Substitutions are numbered along the chain they refer to.

Key:
[1] = molecular target: T1, Zea mays EPSPS variant S-N at positions 103-107 (Zea mays, UniProt O24566, P106N/T102S); experiment: EPSPS substrate saturation kinetics, maize variant 103S 107N; assay type: biochemical
T1 sequence (O24566 with tags, fused parts or gaps T102S/P106N): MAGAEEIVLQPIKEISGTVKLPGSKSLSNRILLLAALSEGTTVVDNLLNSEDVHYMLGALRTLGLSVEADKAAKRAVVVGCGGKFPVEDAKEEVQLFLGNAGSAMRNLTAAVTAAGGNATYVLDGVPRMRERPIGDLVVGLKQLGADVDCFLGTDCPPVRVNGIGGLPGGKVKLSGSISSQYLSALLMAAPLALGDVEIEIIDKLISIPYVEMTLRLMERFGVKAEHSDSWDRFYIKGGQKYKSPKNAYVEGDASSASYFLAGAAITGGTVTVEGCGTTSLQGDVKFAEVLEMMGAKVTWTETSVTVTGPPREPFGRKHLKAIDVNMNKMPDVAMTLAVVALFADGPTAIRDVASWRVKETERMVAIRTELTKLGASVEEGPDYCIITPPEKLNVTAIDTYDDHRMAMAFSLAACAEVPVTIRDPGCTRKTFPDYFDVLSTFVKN
Procedure: EPSPS activity was determined by quantifying the phosphate generated from the EPSPS reaction. Release of inorganic phosphate was coupled to reaction with 2-amino-6-mercapto-7-methylpurine ribonucleoside, catalyzed by purine-nucleoside phosphorylase (M R Webb, Proc. Natl. Acad. Sci. 89:4884-4887, 1992). The absorbance change that occurs was monitored at 360 nm, where the extinction is 11,200 M^−1 cm^−1, with a Spectramax plate reader (Molecular Devices). To determine kinetic parameters, the varied substrate was present at seven concentrations (the eighth being the blank, containing no substrate) ranging from 4 to 400 uM and the unvaried substrate present at saturation. Six microliters of 50-fold concentrated stock solutions of the varied substrate were placed in the wells of the 96-well assay plate and reactions were started with the addition of a mixture containing 25 mM Hepes, pH 7, 100 mM KCl, 0.3 mM 2-amino-6-mercapto-7-methylpurine ribonucleosde, 1 uM (1 unit/ml) purine-nucleoside phosphorylase (Sigma N8264) and 200 uM of the non-varied substrate. Reactions were monitored with a Spectramax plate reader. The Michaelis-Menten kinetics protocol of the Spectramax software was customized for the substrate concentrations used. The software returns values of KM and Vmax using the Lineweaver-Burke transformation of the Michaelis-Menten equation. To determine kcat, Vmax (uM/min) was divided by the enzyme concentration (uM). […] KI was then calculated from the following form of the Michaelis-Menten equation for competitive inhibition: KI=KM[I]/(KM app−KM) KM approximates the dissociation constant of the enzyme-substrate complex while kcat is the rate of conversion of substrate to product when the substrate concentration is saturating. kcat/KM is a widely accepted parameter for catalytic efficiency when substrate concentration is low (˜KM). […] The parameter kcat/KM×KI is used to quantify both catalytic efficiency and insensitivity and thus the overall fitness of the enzyme. […]

[2] = molecular target: T2, Zea mays EPSPS, native, SEQ ID NO:2 (Zea mays, UniProt O24566); experiment: Substrate saturation analysis with glyphosate (Example 8, global fit to competitive inhibition), native maize; assay type: biochemical
T2 construct: E. coli BL21(DE3), Ni-NTA purified
T2 sequence (O24566 with tags, fused parts or gaps): T1 sequence (O24566 with tags, fused parts or gaps T102S/P106N) with S103T, N107P
Excerpt: Generally, (kcat/KM)*KI is obtained by performing substrate saturation analysis in the absence and presence of inhibitor. However, that analysis takes longer. […] To validate the method, (kcat/KM)*KI was quantified using both methods—traditional (saturation) and the instant method (rapid), for variants of maize 5-enolpyruvylshikimate-3-phosphate synthase (EPSPS) and its competitive inhibitor, glyphosate.
The amino acid sequence of mature Zea mays EPSPS was obtained from GenBank entry CAA44974.1 (SEQ ID NO:2). A nucleotide sequence was created to add an N-terminal methionine and to optimize codon usage for expression in E. coli. The synthesized gene was cloned into an expression vector that provides a T7 promoter driving expression of the protein and a 10× N-terminal histidine tag. Variants selected for this study include native maize EPSPS and variants generated by a gene shuffling cascade described herein. The proteins were expressed in E. coli BL21(DE3) and purified by Ni-NTA resin (Qiagen). Protein concentration was determined by absorbance at 280 nm using an extinction coefficient of 0.676 OD/mg/m L. The proteins were normalized to 0.5 mg/mL for assay.
EPSPS activity was determined by quantifying the phosphate generated by the reaction. Release of phosphate was coupled to reaction with MESG, catalyzed by purine-nucleoside phosphorylase, using standard methods. The absorbance change that occurs was monitored continuously at 360 nm, where the extinction is 11,200 M-1 cm-1, with a Spectramax plate reader (Molecular Devices). […] The enzyme concentration was adjusted so as to generate sufficient signal without exceeding the limit for linear initial reaction rates. The same procedure was repeated with two or three concentrations of glyphosate and the data were processed by non-linear regression analysis with GraphPad Prism (graphpad.com) and globally fitted to the Michaelis-Menten equation for competitive inhibition.
To validate that the rapid method yields an accurate estimation of (kcat/KM)*KI, the results were compared with those obtained by full substrate saturation analysis. […]

[3] = substrate saturation, Zm native

Row | Structure (SMILES) | kcat ([1]; PEP varied) | kcat [2, 3] | Ki [1] | (kcat/KM)*KI ([1]; PEP as substrate, glyphosate as inhibitor) | Ki [2] | (kcat/KM)*KI [2, 3]
1 | C=C(OP(=O)(O)O)C(=O)O [PEP, phosphoenolpyruvate] | 161 | 17.27 s⁻¹ | – | – | – | –
2 | O=C(O)CNCP(=O)(O)O [glyphosate, N-phosphonomethylglycine] | – | – | 244 µM | 1033 | 0.13 µM | 12
